Where a name gives a salt, the structure may show the parent alone. Activity calls are given as the source filed them. No cut-off for these calls is given here.
Experiments:
[1] = target: Cyclin-dependent kinase 4/cyclin D1 (Homo sapiens) (UniProt P11802+P24385); experiment: Inhibition of CDK4/Cyclin D1 complex formation at 10 ug/mL; format: protein-complex assay
[2] = target: Cyclin-dependent kinase 4/cyclin D1 (Homo sapiens, UniProt P11802); experiment: Inhibition of CDK4/Cyclin D1 complex formation
Chain of Cyclin-dependent kinase 4/cyclin D1 (P11802 whole entry): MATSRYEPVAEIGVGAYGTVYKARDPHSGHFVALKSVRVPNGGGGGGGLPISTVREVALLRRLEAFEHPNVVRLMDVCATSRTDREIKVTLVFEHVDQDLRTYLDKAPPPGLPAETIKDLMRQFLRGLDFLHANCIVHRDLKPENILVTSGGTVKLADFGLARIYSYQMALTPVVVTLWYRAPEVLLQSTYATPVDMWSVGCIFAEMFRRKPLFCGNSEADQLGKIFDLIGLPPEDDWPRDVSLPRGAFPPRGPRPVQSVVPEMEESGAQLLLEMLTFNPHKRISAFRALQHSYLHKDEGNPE
Chain of Cyclin-dependent kinase 4/cyclin D1 (P24385 whole entry, further chain): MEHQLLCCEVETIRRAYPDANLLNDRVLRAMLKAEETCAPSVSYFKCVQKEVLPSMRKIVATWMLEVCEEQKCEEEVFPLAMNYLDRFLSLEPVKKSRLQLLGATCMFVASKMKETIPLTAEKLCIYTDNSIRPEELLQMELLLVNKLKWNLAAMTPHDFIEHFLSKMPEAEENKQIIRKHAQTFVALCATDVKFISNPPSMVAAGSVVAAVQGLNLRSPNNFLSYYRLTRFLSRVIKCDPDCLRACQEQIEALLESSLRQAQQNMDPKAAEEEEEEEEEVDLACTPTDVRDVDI

| Structure (SMILES) | Activity [1] | IC50 [2] [µM] |
| --- | --- | --- |
| CC1(C)CCC[C@]2(C)[C@@H](Cc3c(O)ccc(O)c3C=O)[C@](C)(O)CC[C@@H]12 | inactive |  |
| COCc1cc(O)c(O)c2c1[C@@]1(C)CC[C@H]3C(C)(C)CCC[C@]3(C)[C@H]1C2 | inactive |  |
| CC(CC[C@@H](C)[C@H]1CC[C@H]2[C@@H]3C[C@H](OS(=O)(=O)O)[C@H]4C[C@H](OS(=O)(=O)O)[C@@H](OS(=O)(=O)O)C[C@]4(C)[C@H]3CC[C@]12C)C(C)(C)C (some centres undefined) [HALISTANOL SULFATE] |  | 12.6 |
| CC1=CC[C@H]2C(C)(C)CCC[C@]2(C)[C@H]1Cc1cc(O)c(O)c(C=O)c1OS(=O)(=O)O [SIPHONODICTYAL C] |  | 19.5 |

Source: ChEMBL document CHEMBL1150047, “New sesquiterpene quinols from a Micronesian sponge, Aka sp” (J Nat Prod, 2003)
